Test results taken from PubChem BioAssay AID743231 (The Scripps Research Institute Molecular Screening Center, 2013).
Active and inactive are the calls of the source. Cut-off not given; nearly all actives show IC50 up to about 7.9 µM.

molecular target: Trace amine-associated receptor 1 (Homo sapiens) (UniProt Q96RJ0); assay: agonist-induced loss of TAAR1 response, titration – cell-based, fluorescence, late stage, counter-screen for TAAR1 agonist project, dose response (AID 743231); conditions: hTAAR1 cells, desensitization of agonist response
Sequence (Q96RJ0 whole entry, looked up): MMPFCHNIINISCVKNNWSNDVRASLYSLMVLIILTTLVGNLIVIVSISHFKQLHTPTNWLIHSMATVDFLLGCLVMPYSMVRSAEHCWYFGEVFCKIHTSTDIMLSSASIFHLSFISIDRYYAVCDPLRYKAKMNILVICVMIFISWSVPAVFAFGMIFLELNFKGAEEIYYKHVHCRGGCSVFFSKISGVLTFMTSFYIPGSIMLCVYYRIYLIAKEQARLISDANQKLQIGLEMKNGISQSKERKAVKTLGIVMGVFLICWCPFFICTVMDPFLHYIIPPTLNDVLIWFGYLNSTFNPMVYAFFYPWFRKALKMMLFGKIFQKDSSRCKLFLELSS

`O=C(CCN1CCC(c2ccccc2)C1)c1ccc2c(c1)OCCO2` (stereo not given) and `O=C(CCN1CCc2ccccc2CC1)c1ccc2c(c1)OCCO2` are within 1.5-fold of each other in IC50: 856 nM for the first, 1010 nM for the second.

`CCOC(=O)C(NC(=O)CC)(N1CCc2ccccc2C1)C(F)(F)F` (stereo not given) and `CCOC(=O)C(NC(C)=O)(N1CCc2ccccc2C1)C(F)(F)F` (stereo not given) are within 1.5-fold of each other in IC50: 611 nM for the first, 639 nM for the second.

First: Nc1nc(Nc2cccc(F)c2)nc2ccccc12
Second: Nc1nc(Nc2ccccc2)nc2ccccc12
The IC50 of the first is 2-fold higher: 1280 nM for the first, 642 nM for the second. The second is the more potent here.

Going from `CC1(C)CCCN(C(=O)c2coc(=O)c(Br)c2)C1` to `Cc1cc(C)n(C(CC(=O)N2CCc3ccccc3C2)C(=O)O)n1` (stereo not given), the IC50 falls from 2550 nM to 1220 nM (2.1-fold). The second is the more potent here.

Going from `OCCNc1nc(Nc2cccc(O)c2)nc2ccccc12` to `OCCNc1nc(Nc2ccc(O)cc2)nc2ccccc12`, the IC50 rises from 244 nM to 1860 nM (7.6-fold). The first is the more potent here.

`O=C(CCCCl)N1CCc2[nH]c3ccccc3c2C1` and `c1ccc2c3c([nH]c2c1)CCNC3` are within 1.5-fold of each other in IC50: 1090 nM for the first, 1120 nM for the second.

Going from `c1ccc2c(c1)CCN(c1nc3cc4c(cc3s1)OCO4)C2` to `Cc1ccc(NC(=O)CCN2CCc3ccccc3C2)cc1`, the IC50 rises from 2250 nM to 8270 nM (3.7-fold). The first is the more potent here.

`O=C(Nc1ccncc1)Nc1ccc(F)cc1` and `O=C(Nc1ccccc1)Nc1ccncc1` are within 1.5-fold of each other in IC50: 2430 nM for the first, 2740 nM for the second.

First: CC(=NCCc1ccccc1)C1CCOC1=O (stereo not given)
Second: O=C(CCN1CCC(c2ccccc2)C1)c1cccs1 (stereo not given)
The IC50 of the first is 3.4-fold higher: 2840 nM for the first, 835 nM for the second. The second is the more potent here.

Compared with `O=C(Nc1cccnc1)Nc1cccc(F)c1`, `Cc1cc(N(C)C)nc(Nc2ccccc2)n1` is 31-fold lower in IC50: 6520 nM for the first, 210 nM for the second.

First: NC(N)=NN=Cc1c(Cl)cccc1Cl
Second: O=C(C(=O)N1CCc2ccccc2C1)c1cn(CC(=O)N2CCCCC2)c2ccccc12
The IC50 of the first is 3.5-fold lower: 770 nM for the first, 2690 nM for the second. The first is the more potent here.

`c1ccc(CCn2nnnc2C(c2cccs2)N2CCN(Cc3ccc4c(c3)OCO4)CC2)cc1` (stereo not given) and `COc1cc(C(=O)CCN2CCC(c3ccccc3)C2)cc(OC)c1OC` (stereo not given) are within 1.5-fold of each other in IC50: 1340 nM for the first, 1520 nM for the second.

For `O=C(Nc1cccc2ccccc12)N1CCc2ccccc2C1`, the IC50 was > 29900 nM (inactive).
